Measurements published in patent US3959272A, “Aminoalkyl esters of 2-anilino-nicotinic acids” (Societe Anonyme dite: Hexachime, priority 1972, dated 1976).

How the values were obtained:
[1] = type: in vivo, dog; conditions: 48 mg/kg intravenously at 1 mg/kg/minute; two dogs
Protocol: The compounds under test were administered to rats or mice intraperitoneally. The loss of the righting reflex was noted and the duration of sleep measured objectively with reference to the loss of the righting reflex. The compounds under test were also administered by slow perfusion to dogs. The moment when the dog fell asleep and the duration of sleep was noted.
Two dogs each weighing 11 kg. received intravenously 48 mg/kg of the product of Example 1 perfused at the rate of 1 mg/kg/minute. Sleep appeared at the end of 25 minutes and lasted for 15 minutes. The animals were sleepy for 1 hour after the end of the perfusion.

[2] = Analgesic activity: Siegmund's test (phenylbenzoquinone painful reactions); type: in vivo; conditions: Mus musculus, po, read-out: percentage inhibition of reactions
Protocol: This activity was measured by Siegmund's test in mice and Randall and Selitto's test in the rat.
Groups of six mice received the compound under test orally 1 hour before intraperitoneal injection of 0.2 ml of an 0.02% of solution of phenylbenzoquinone. The number of painful reactiors from the fifth to the tenth minute after the injection of phenylbenzoquinone was counted.

[3] = Escape test; type: in vivo; conditions: Mus musculus, ip, 0.5 h, read-out: Percentage inhibition (number of attempts to escape)
Protocol: Groups of 8 mice were placed in sub groups of 4 in an enclosure from which they could escape by an inclined plane. The number of attempts to escape during 5 minutes were counted half an hour after intraperitoneal administration of the compound under test.

[4] = Laparotomy test; type: in vivo, rat; conditions: as the hydrochloride; for ED50: Rattus norvegicus, ip, intraperitoneal
Protocol: Rats weighing 110 to 130 g each received the product of Example 1 (as the hydrochloride) by intraperitoneal injection. 10 or 30 Minutes after the treatment, the animals are examined to see:
1. If they allow themselves to remain lying on their backs;
3. if they tolerate an incision into the skin; and
4. if they tolerate an incision into the muscle. If an animal submits without reaction it is counted as zero, and if it reacts it is counted as one. The total score is calculated for each dosage. The following table gives the percentage protection and the number of sleeping rats.

[5] = Stimulation of dental pulp in the rabbit; type: in vivo
Protocol: 24 Hours before the test, each incisor of the rabbit is drilled 1 mm below the gum to a depth of about 1 mm. The next day, the animals are placed in restraining boxes and stimulating electrodes are placed in position. The threshold of reaction to the electrical stimulation (at 30 Hz; 10 ms; for 1 s) is measured by the munching reaction of the rabbits. The product of Example 1 was administered intravenously and its effect on the pain threshold was measured at regular intervals after treatment.

[6] = Acute toxicity in the rat; conditions: in vivo
[7] = Action on isoprenaline in dogs; type: in vivo, dog; conditions: only if atropinised and bivagotomised
[8] = Overall result of the pharmacological tests; type: in vivo; conditions: according to the results obtained
Text: The new compounds show these properties in the tests usually used to determine them.

[9] = Post-operative pain following bone surgery, patients; type: in vivo, human (patients)
Protocol: The product of Example 1 has been administered to patients suffering from post-operative pain following bone surgery. 10 Patients received the compound at a daily dosage of 150 mg orally. Complete or partial analgesia was felt by 5 patients and slight analgesia by a further 4. When administered intramuscularly at a dosage of 20 to 100 mg per day to 9 patients, the product of Example 1 produced complete analgesia in 5, partial analgesia in 2 and slight analgesia in the remaining 2. […] Eight patients received the product of Example 1 rectally in a dosage of 300 mg per day.

[10] = 150 mg daily orally, 10 patients
[11] = 300 mg per day rectally, eight patients
[12] = 20 to 100 mg per day intramuscularly, 9 patients
[13] = 50 to 100 mg per day intravenously, slow injection, 13 patients

For `Cc1cccc(Nc2ncccc2C(=O)OCCN2CCOCC2)c1C` [Example 1, β-Morpholino ethyl nixylate], the duration of sleep [1] was 15 min, the “time animals were sleepy after the end of the perfusion” value [1] was 1 h and the “time at which sleep appeared” value [1] was 25 min. For the same compound, the inhibition in vivo at 4 mg/kg ([2]; 4 mg/kg orally) was 10%, the inhibition in vivo at 8 mg/kg ([2]; 8 mg/kg orally) was 26% and the inhibition in vivo at 16 mg/kg ([2]; 16 mg/kg orally) was 26%. It also gave an inhibition in vivo at 32 mg/kg ([2]; 32 mg/kg orally) of 45%, an inhibition in vivo at 64 mg/kg ([2]; 64 mg/kg orally) of 64% and an inhibition in vivo at 128 mg/kg ([2]; 128 mg/kg orally) of 83%. It also gave an inhibition in vivo at 256 mg/kg ([2]; 256 mg/kg orally) of 95%, a change in vivo at 8 mg/kg ([3]; 8 mg/kg intraperitoneally) of 6% and a change in vivo at 16 mg/kg ([3]; 16 mg/kg intraperitoneally) of 3%. It also gave a change in vivo at 32 mg/kg ([3]; 32 mg/kg intraperitoneally) of -8%, a change in vivo at 64 mg/kg ([3]; 64 mg/kg intraperitoneally) of -51% and a change in vivo at 128 mg/kg ([3]; 128 mg/kg intraperitoneally) of -100%. The ED50 ([4]; 10 min, 10 min after treatment) was 44 mg/kg, the ED50 ([4]; 0.5 h, 30 min after treatment) was 100 mg/kg and the Percentage protection ([4]; 16 mg/kg intraperitoneally, 10 min after treatment, 12 rats) was 6%. For the same compound, the “Number of sleeping rats” value ([4]; 16 mg/kg intraperitoneally, 10 min after treatment, of 12 rats) was 0, the Percentage protection ([4]; 16 mg/kg intraperitoneally, 30 min after treatment, 6 rats) was 0% and the “Number of sleeping rats” value ([4]; 16 mg/kg intraperitoneally, 30 min after treatment, of 6 rats) was 0. The Percentage protection ([4]; 32 mg/kg intraperitoneally, 10 min after treatment, 12 rats) was 34%, the “Number of sleeping rats” value ([4]; 32 mg/kg intraperitoneally, 10 min after treatment, of 12 rats) was 0 and the Percentage protection ([4]; 32 mg/kg intraperitoneally, 30 min after treatment, 6 rats) was 0%. For the same compound, the “Number of sleeping rats” value ([4]; 32 mg/kg intraperitoneally, 30 min after treatment, of 6 rats) was 0, the Percentage protection ([4]; 64 mg/kg intraperitoneally, 10 min after treatment, 24 rats) was 62% and the “Number of sleeping rats” value ([4]; 64 mg/kg intraperitoneally, 10 min after treatment, of 24 rats) was 0. For the same compound, the Percentage protection ([4]; 64 mg/kg intraperitoneally, 30 min after treatment, 24 rats) was 34%, the “Number of sleeping rats” value ([4]; 64 mg/kg intraperitoneally, 30 min after treatment, of 24 rats) was 0 and the Percentage protection ([4]; 128 mg/kg intraperitoneally, 10 min after treatment, 12 rats) was 96%. For the same compound, the “Number of sleeping rats” value ([4]; 128 mg/kg intraperitoneally, 10 min after treatment, of 12 rats) was 0, the Percentage protection ([4]; 128 mg/kg intraperitoneally, 30 min after treatment, 12 rats) was 62% and the “Number of sleeping rats” value ([4]; 128 mg/kg intraperitoneally, 30 min after treatment, of 12 rats) was 8. The Percentage protection ([4]; 256 mg/kg intraperitoneally, 30 min after treatment, 6 rats) was 92%, the “Number of sleeping rats” value ([4]; 256 mg/kg intraperitoneally, 30 min after treatment, of 6 rats) was 6 and the “Threshold, % (increase)” value ([5]; 2.5 mg/kg intravenously, 1h30) was 59%. The Threshold in volts ([5]; 2.5 mg/kg intravenously, 1h30, pre-treatment 2.26) was 3.61 volts, the “Threshold, % (increase)” value ([5]; 2.5 mg/kg intravenously, 2h30) was 47% and the Threshold in volts ([5]; 2.5 mg/kg intravenously, 2h30, pre-treatment 2.26) was 3.33 volts. For the same compound, the “Threshold, % (increase)” value ([5]; 2.5 mg/kg intravenously, 15 min) was 38%, the Threshold in volts ([5]; 2.5 mg/kg intravenously, 15 min, pre-treatment 2.26) was 3.12 volts and the “Threshold, % (increase)” value ([5]; 2.5 mg/kg intravenously, 30 min) was 33%. For the same compound, the Threshold in volts ([5]; 2.5 mg/kg intravenously, 30 min, pre-treatment 2.26) was 3.02 volts, the “Threshold, % (increase)” value ([5]; 2.5 mg/kg intravenously, 1 h) was 41% and the Threshold in volts ([5]; 2.5 mg/kg intravenously, 1 h, pre-treatment 2.26) was 3.20 volts. For the same compound, the “Threshold, % (increase)” value ([5]; 2.5 mg/kg intravenously, 2 h) was 56%, the Threshold in volts ([5]; 2.5 mg/kg intravenously, 2 h, pre-treatment 2.26) was 3.54 volts and the “Threshold, % (increase)” value ([5]; 5 mg/kg intravenously, 1h30) was 59%. The Threshold in volts ([5]; 5 mg/kg intravenously, 1h30, pre-treatment 2.54) was 4.05 volts, the “Threshold, % (increase)” value ([5]; 5 mg/kg intravenously, 2h30) was 15% and the Threshold in volts ([5]; 5 mg/kg intravenously, 2h30, pre-treatment 2.54) was 2.94 volts. For the same compound, the “Threshold, % (increase)” value ([5]; 5 mg/kg intravenously, 15 min) was 95%, the Threshold in volts ([5]; 5 mg/kg intravenously, 15 min, pre-treatment 2.54) was 4.97 volts and the “Threshold, % (increase)” value ([5]; 5 mg/kg intravenously, 30 min) was 88%. The Threshold in volts ([5]; 5 mg/kg intravenously, 30 min, pre-treatment 2.54) was 4.80 volts, the “Threshold, % (increase)” value ([5]; 5 mg/kg intravenously, 1 h) was 58% and the Threshold in volts ([5]; 5 mg/kg intravenously, 1 h, pre-treatment 2.54) was 4.02 volts. The “Threshold, % (increase)” value ([5]; 5 mg/kg intravenously, 2 h) was 30%, the Threshold in volts ([5]; 5 mg/kg intravenously, 2 h, pre-treatment 2.54) was 3.31 volts and the “Threshold, % (increase)” value ([5]; 10 mg/kg intravenously, 1h30) was 52%. The Threshold in volts ([5]; 10 mg/kg intravenously, 1h30, pre-treatment 2.65) was 4.05 volts, the “Threshold, % (increase)” value ([5]; 10 mg/kg intravenously, 2h30) was 24% and the Threshold in volts ([5]; 10 mg/kg intravenously, 2h30, pre-treatment 2.65) was 3.29 volts. The “Threshold, % (increase)” value ([5]; 10 mg/kg intravenously, 15 min) was 74%, the Threshold in volts ([5]; 10 mg/kg intravenously, 15 min, pre-treatment 2.65) was 4.62 volts and the “Threshold, % (increase)” value ([5]; 10 mg/kg intravenously, 30 min) was 118%. For the same compound, the Threshold in volts ([5]; 10 mg/kg intravenously, 30 min, pre-treatment 2.65) was 5.80 volts, the “Threshold, % (increase)” value ([5]; 10 mg/kg intravenously, 1 h) was 69% and the Threshold in volts ([5]; 10 mg/kg intravenously, 1 h, pre-treatment 2.65) was 4.49 volts. The “Threshold, % (increase)” value ([5]; 10 mg/kg intravenously, 2 h) was 40%, the Threshold in volts ([5]; 10 mg/kg intravenously, 2 h, pre-treatment 2.65) was 3.72 volts and the LD50 at 168 h ([6]; ip) was 875 mg/kg. For the same compound, the LD50 at 168 h ([6]; po) was over 2350 mg/kg, the “potentiation of the action of isoprenaline” value [7] was “potentiates the action of isoprenaline in 3 dogs out of 5” and the “activity relative to the other compounds” value [8] was “the most active compound”. For the same compound, the “complete or partial analgesia” value [9, 10] was 5 patients, the slight analgesia [9, 10] was 4 patients and the moderate analgesia [9, 11] was “one”. For the same compound, the no analgesia [9, 11] was “the last one no analgesia”, the strong analgesia [9, 11] was “Six” and the complete analgesia [9, 12] was 5 patients. The partial analgesia [9, 12] was 2 patients, the slight analgesia [9, 12] was 2 patients and the complete analgesia [9, 13] was 9 patients. For the same compound, the moderate analgesia [9, 13] was 3 patients and the no analgesia [9, 13] was “no analgesia in the remaining patient”.
